# Experimental data taken from patent US12263143B2, “Ionic channel modulation as a method for treating tumors through inflammasome activation” (priority 2019, dated 2025).
# Experiments:
# [1] = target: TORID (Homo sapiens, UniProt Q3YBM2); conditions: prior application WO2018203262A1; cited from earlier work
# [2] = tested on: inflammasome (NLRP3); conditions: prior application WO2018203262A1; cited from earlier work
# [3] = tested on: two tumor types; conditions: anti-PD-1 resistant mice, WO2018203262A1; cited from earlier work
# [4] = tested on: NLRP3 inflammasome; assay: NLRP3 inflammasome activation in LPS/ATP-treated BMDCs, IL-1β in culture supernatant by ELISA; assay type: cell-based; conditions: mouse BMDCs, LPS 0.25 μg/ml for 3 hr and ATP 0.5 mM, vs vehicle control (DMSO)
# Method: (§1) Triggering inflammasome activation: Mouse bone marrow-derived dendritic cells (BMDCs) are treated with LPS and ATP to trigger NLRP3 inflammasome activation in the presence of vehicle control (DMSO) or the indicated ion channels modulators. IL-1β is measured in the culture supernatant by ELISA. • [IL-1β was used to measure the degree of inflammasome activation] • b. Inhibiting TORID-dependent ion flux: CHO-7 cells were transfected with TORID-1 and TORID-2 plasmids. Cells were then loaded with the Na^+-sensitive fluorescent dye-ANG-2-. ANG-2 mean fluorescence intensity (MFI) subtracting in each condition the MFI obtained in Na+-free buffer substituted with NMDG+ is shown. Cells left untreated or treated with the indicated drugs were studied • [MFI was used to measure the degree of inhibition of TORID-dependent ion flux.
# (§2) IL-1β was measured in the culture supernatant by ELISA. • B CHO-7 cells were transfected with Tmem176b (TORID-1) and Tmem176a (TORID-2)-mcherry-coding pSecTag2B plasmids. Cells were then loaded with the Na^+-sensitive fluorescent dye Asante NaTRIUM Green 2 (ANG-2). ANG-2 mean fluorescence intensity (MFI) subtracting in each condition the MFI obtained in Na^+-free buffer substituted with NMDG^+ is shown. Cells left untreated or treated with the indicated drugs were studied.
# [5] = tested on: Tmem176b (TORID-1) and Tmem176a (TORID-2); assay: TORID-dependent ion flux, ANG-2 Na+-sensitive dye MFI in transfected CHO-7 cells; assay type: cell-based; conditions: CHO-7 cells transfected with Tmem176b and Tmem176a-mcherry pSecTag2B plasmids, vs untreated cells
# Method: as §1, §2
# TORID, sequence (Q3YBM2 whole entry): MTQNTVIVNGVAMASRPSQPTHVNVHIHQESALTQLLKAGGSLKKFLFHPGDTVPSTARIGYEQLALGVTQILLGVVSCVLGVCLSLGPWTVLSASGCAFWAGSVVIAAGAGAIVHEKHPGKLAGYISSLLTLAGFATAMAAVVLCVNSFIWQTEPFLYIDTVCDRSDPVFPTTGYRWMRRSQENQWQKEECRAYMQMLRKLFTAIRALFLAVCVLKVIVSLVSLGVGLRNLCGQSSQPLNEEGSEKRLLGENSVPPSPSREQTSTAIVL
Structure (SMILES),TORID activity [1],inflammasome (NLRP3) expression [2],rate of survival [3],NLRP3 inflammasome activation (IL-1β in culture supernatant by ELISA) [4],"TORID activity (ANG-2 MFI, Na+-free NMDG+ buffer MFI subtracted) [5]"
"COC(=O)C1=C(C)NC(C)=C([N+](=O)[O-])C1c1ccccc1C(F)(F)F (single isomer, unassigned; (+)) [(+)BAY K8644, Methyl 2,6-dimethyl-5-nitro-4-[2-(trifluoromethyl)phenyl]-1,4-dihydropyridine-3-carboxylate]",inhibited TORID activity,increased inflammasome (NLRP3) expression,higher rate of survival,–,–
CCN1C[C@]2(COC)[C@H](O)C[C@H](OC)[C@@]34[C@@H]5C[C@@]6(O)[C@H](OC(=O)c7ccccc7)[C@@H]5[C@@](OC(C)=O)([C@@H]([C@H](OC)[C@H]23)[C@@H]14)[C@@H](O)[C@@H]6OC [Aconitine],–,–,–,enhance NLRP3 inflammasome activation,inhibit TORID activity
CCN(CC)CC(=O)Nc1c(C)cccc1C [Lidocaine],–,–,–,enhance NLRP3 inflammasome activation,inhibit TORID activity
CCN(CC)CCNC(=O)c1ccc(N)cc1 [Procainamide],–,–,–,enhance NLRP3 inflammasome activation,inhibit TORID activity
